Measured values as given in ChEMBL document CHEMBL1149262, “Monoamine transporter binding, locomotor activity, and drug discrimination properties of 3-(4-substituted-phenyl)tropane-2-carboxylic acid methyl ester isomers” (J Med Chem, 2004).
Activity calls are given as the source filed them. No cut-off for these calls is given here.

Experiments:
Mus musculus [1] = experiment: Locomotor activity in CD1 mouse assessed as stimulation at 0.3 mg/kg, ip after 1 hr relative to control; format: functional; conditions: route intraperitoneal
Mus musculus [2] = experiment: Locomotor activity in CD1 mouse assessed as stimulation at 0.3 mg/kg, ip after 2 hrs relative to control; format: functional; conditions: route intraperitoneal
Mus musculus [3] = experiment: Locomotor activity in CD1 mouse assessed as stimulation at 0.3 mg/kg, ip after 3 hrs relative to control; format: functional; conditions: route intraperitoneal
Mus musculus [4] = experiment: Locomotor activity in CD1 mouse assessed as stimulation at 0.3 mg/kg, ip after 4 hrs relative to control; format: functional; conditions: route intraperitoneal
Mus musculus [5] = experiment: Locomotor activity in CD1 mouse assessed as stimulation at 1 mg/kg, ip after 1 hr relative to control; format: functional; conditions: route intraperitoneal
Mus musculus [6] = experiment: Locomotor activity in CD1 mouse assessed as stimulation at 1 mg/kg, ip after 2 hrs relative to control; format: functional; conditions: route intraperitoneal
Mus musculus [7] = experiment: Locomotor activity in CD1 mouse assessed as stimulation at 1 mg/kg, ip after 3 hrs relative to control; format: functional; conditions: route intraperitoneal
Mus musculus [8] = experiment: Locomotor activity in CD1 mouse assessed as stimulation at 1 mg/kg, ip after 4 hrs relative to control; format: functional; conditions: route intraperitoneal
Rattus norvegicus [9] = experiment: Cocaine discrimination in ip dosed CD Albino rat; format: functional
Rattus norvegicus [10] = experiment: Drug discrimination effect in CD Albino rat assessed as percent of rat choosing cocaine lever at 0.17 mg/kg, ip; format: functional; conditions: route intraperitoneal
Rattus norvegicus [11] = experiment: Drug discrimination effect in CD Albino rat assessed as percent of rat choosing cocaine lever at 0.3 mg/kg, ip; format: functional; conditions: route intraperitoneal
Rattus norvegicus [12] = experiment: Drug discrimination effect in CD Albino rat assessed as percent of rat choosing cocaine lever at 0.56 mg/kg, ip; format: functional; conditions: route intraperitoneal
Rattus norvegicus [13] = experiment: Drug discrimination effect in CD Albino rat assessed as percent of rat choosing cocaine lever at 1 mg/kg, ip; format: functional; conditions: route intraperitoneal
Mus musculus [14] = experiment: Activity in CD1 mouse assessed as stereotypy at 10 mg/kg, ip after 4 hrs; format: functional, organism-based; design: dose 10 mg/kg
Mus musculus [15] = experiment: Activity in CD1 mouse assessed as stereotypy at 100 mg/kg, ip after 4 hrs; format: functional, organism-based; design: dose 100 mg/kg
[16] = target: Sodium-dependent dopamine transporter (Homo sapiens, UniProt Q01959); experiment: Displacement of [3H]WIN-35428 from DAT
[17] = target: Sodium-dependent noradrenaline transporter (Homo sapiens, UniProt P23975); experiment: Displacement of [3H]nisoxetine from NET
Mus musculus [18] = experiment: Locomotor activity in ip dosed CD1 mouse in peak hour; format: functional
Mus musculus [19] = experiment: Locomotor activity in CD1 mouse assessed as stimulation at 3 mg/kg, ip after 1 hr relative to control; format: functional; conditions: route intraperitoneal
Mus musculus [20] = experiment: Locomotor activity in CD1 mouse assessed as stimulation at 3 mg/kg, ip after 2 hrs relative to control; format: functional; conditions: route intraperitoneal
Mus musculus [21] = experiment: Locomotor activity in CD1 mouse assessed as stimulation at 3 mg/kg, ip after 3 hrs relative to control; format: functional; conditions: route intraperitoneal
Mus musculus [22] = experiment: Locomotor activity in CD1 mouse assessed as stimulation at 3 mg/kg, ip after 4 hrs relative to control; format: functional; conditions: route intraperitoneal
Mus musculus [23] = experiment: Locomotor activity in CD1 mouse assessed as stimulation at 10 mg/kg, ip after 1 hr relative to control; format: functional; conditions: route intraperitoneal
Mus musculus [24] = experiment: Locomotor activity in CD1 mouse assessed as stimulation at 10 mg/kg, ip after 2 hrs relative to control; format: functional; conditions: route intraperitoneal
Mus musculus [25] = experiment: Locomotor activity in CD1 mouse assessed as stimulation at 10 mg/kg, ip after 3 hrs relative to control; format: functional; conditions: route intraperitoneal
Mus musculus [26] = experiment: Locomotor activity in CD1 mouse assessed as stimulation at 10 mg/kg, ip after 4 hrs relative to control; format: functional; conditions: route intraperitoneal
Rattus norvegicus [27] = experiment: Drug discrimination effect in CD Albino rat assessed as percent of rat choosing cocaine lever at 0.1 mg/kg, ip; format: functional; conditions: route intraperitoneal
Mus musculus [28] = experiment: Activity in CD1 mouse assessed as hyperactivity at 1 mg/kg, ip after 4 hrs; format: functional, organism-based; design: dose 1 mg/kg
Mus musculus [29] = experiment: Activity in CD1 mouse assessed as stereotypy at 1 mg/kg, ip after 4 hrs; format: functional, organism-based; design: dose 1 mg/kg
Mus musculus [30] = experiment: Activity in CD1 mouse assessed as hyperactivity at 10 mg/kg, ip after 4 hrs; format: functional, organism-based; design: dose 10 mg/kg
Mus musculus [31] = experiment: Activity in CD1 mouse assessed as circling at 10 mg/kg, ip after 4 hrs; format: functional, organism-based; design: dose 10 mg/kg
Mus musculus [32] = experiment: Activity in CD1 mouse assessed as straub tail at 100 mg/kg, ip after 4 hrs; format: functional, organism-based; design: dose 100 mg/kg
Mus musculus [33] = experiment: Activity in CD1 mouse assessed as convulsions at 100 mg/kg, ip after 4 hrs; format: functional, organism-based; design: dose 100 mg/kg
Rattus norvegicus [34] = experiment: Drug discrimination effect in CD Albino rat assessed as percent of rat choosing cocaine lever at 1.7 mg/kg, ip; format: functional; conditions: route intraperitoneal
Rattus norvegicus [35] = experiment: Drug discrimination effect in CD Albino rat assessed as percent of rat choosing cocaine lever at 3 mg/kg, ip; format: functional; conditions: route intraperitoneal
Rattus norvegicus [36] = experiment: Drug discrimination effect in CD Albino rat assessed as percent of rat choosing cocaine lever at 5.6 mg/kg, ip; format: functional; conditions: route intraperitoneal
Rattus norvegicus [37] = experiment: Drug discrimination effect in CD Albino rat assessed as percent of rat choosing cocaine lever at 10 mg/kg, ip; format: functional; conditions: route intraperitoneal
Mus musculus [38] = experiment: Activity in CD1 mouse assessed as hyperactivity at 100 mg/kg, ip after 4 hrs; format: functional, organism-based; design: dose 100 mg/kg
Mus musculus [39] = experiment: Locomotor activity in CD1 mouse assessed as stimulation at 30 mg/kg, ip after 1 hr relative to control; format: functional; conditions: route intraperitoneal
Mus musculus [40] = experiment: Locomotor activity in CD1 mouse assessed as stimulation at 30 mg/kg, ip after 2 hrs relative to control; format: functional; conditions: route intraperitoneal
Mus musculus [41] = experiment: Locomotor activity in CD1 mouse assessed as stimulation at 30 mg/kg, ip after 3 hrs relative to control; format: functional; conditions: route intraperitoneal
Mus musculus [42] = experiment: Locomotor activity in CD1 mouse assessed as stimulation at 30 mg/kg, ip after 4 hrs relative to control; format: functional; conditions: route intraperitoneal
Mus musculus [43] = experiment: Locomotor activity in CD1 mouse assessed as stimulation at 100 mg/kg, ip after 1 hr relative to control; format: functional; conditions: route intraperitoneal
Mus musculus [44] = experiment: Locomotor activity in CD1 mouse assessed as stimulation at 100 mg/kg, ip after 2 hrs relative to control; format: functional; conditions: route intraperitoneal
Mus musculus [45] = experiment: Locomotor activity in CD1 mouse assessed as stimulation at 100 mg/kg, ip after 3 hrs relative to control; format: functional; conditions: route intraperitoneal
Mus musculus [46] = experiment: Locomotor activity in CD1 mouse assessed as stimulation at 100 mg/kg, ip after 4 hrs relative to control; format: functional; conditions: route intraperitoneal
Mus musculus [47] = experiment: Activity in CD1 mouse assessed as slight or intermittent hyperactivity at 10 mg/kg, ip after 4 hrs; format: functional, organism-based; design: dose 10 mg/kg
Mus musculus [48] = experiment: Activity in CD1 mouse assessed as circling at 100 mg/kg, ip after 4 hrs; format: functional, organism-based; design: dose 100 mg/kg
[49] = target: Sodium-dependent serotonin transporter (Homo sapiens, UniProt P31645)
Sodium-dependent serotonin transporter, sequence (P31645 whole entry): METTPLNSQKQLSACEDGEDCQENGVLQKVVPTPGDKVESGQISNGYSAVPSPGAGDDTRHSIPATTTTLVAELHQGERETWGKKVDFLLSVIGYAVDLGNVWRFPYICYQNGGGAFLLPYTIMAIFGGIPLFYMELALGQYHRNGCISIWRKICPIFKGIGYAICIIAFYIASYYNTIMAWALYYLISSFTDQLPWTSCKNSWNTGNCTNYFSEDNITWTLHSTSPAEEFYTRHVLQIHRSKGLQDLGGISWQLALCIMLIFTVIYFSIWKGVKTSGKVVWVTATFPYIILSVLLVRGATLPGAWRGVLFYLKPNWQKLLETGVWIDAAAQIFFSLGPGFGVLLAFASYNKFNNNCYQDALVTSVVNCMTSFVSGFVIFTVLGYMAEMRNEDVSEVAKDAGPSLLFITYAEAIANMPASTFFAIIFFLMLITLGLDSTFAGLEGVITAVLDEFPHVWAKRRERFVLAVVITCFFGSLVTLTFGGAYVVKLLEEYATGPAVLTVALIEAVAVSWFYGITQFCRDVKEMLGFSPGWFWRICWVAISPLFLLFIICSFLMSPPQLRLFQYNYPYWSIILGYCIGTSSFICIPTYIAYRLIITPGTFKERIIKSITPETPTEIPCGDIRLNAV
Description: Displacement of [3H]paroxetine from 5HTT

Sodium-dependent noradrenaline transporter, sequence (P23975 whole entry): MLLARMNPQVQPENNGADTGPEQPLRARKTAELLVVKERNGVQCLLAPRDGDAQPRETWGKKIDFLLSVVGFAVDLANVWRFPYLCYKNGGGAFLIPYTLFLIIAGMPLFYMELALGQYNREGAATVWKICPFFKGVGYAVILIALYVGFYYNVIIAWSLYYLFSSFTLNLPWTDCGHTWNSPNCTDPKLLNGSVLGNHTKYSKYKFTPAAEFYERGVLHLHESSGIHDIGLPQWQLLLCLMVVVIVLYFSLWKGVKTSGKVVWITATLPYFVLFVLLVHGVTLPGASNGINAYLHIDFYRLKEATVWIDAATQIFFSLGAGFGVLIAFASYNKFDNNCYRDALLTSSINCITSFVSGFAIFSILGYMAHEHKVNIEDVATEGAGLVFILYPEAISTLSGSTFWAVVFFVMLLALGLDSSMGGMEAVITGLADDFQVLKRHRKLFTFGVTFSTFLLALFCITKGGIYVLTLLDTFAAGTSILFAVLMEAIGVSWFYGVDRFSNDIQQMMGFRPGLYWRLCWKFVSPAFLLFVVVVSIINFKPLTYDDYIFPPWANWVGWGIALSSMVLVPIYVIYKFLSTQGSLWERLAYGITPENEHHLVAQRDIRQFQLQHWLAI
Sodium-dependent dopamine transporter, sequence (Q01959 whole entry): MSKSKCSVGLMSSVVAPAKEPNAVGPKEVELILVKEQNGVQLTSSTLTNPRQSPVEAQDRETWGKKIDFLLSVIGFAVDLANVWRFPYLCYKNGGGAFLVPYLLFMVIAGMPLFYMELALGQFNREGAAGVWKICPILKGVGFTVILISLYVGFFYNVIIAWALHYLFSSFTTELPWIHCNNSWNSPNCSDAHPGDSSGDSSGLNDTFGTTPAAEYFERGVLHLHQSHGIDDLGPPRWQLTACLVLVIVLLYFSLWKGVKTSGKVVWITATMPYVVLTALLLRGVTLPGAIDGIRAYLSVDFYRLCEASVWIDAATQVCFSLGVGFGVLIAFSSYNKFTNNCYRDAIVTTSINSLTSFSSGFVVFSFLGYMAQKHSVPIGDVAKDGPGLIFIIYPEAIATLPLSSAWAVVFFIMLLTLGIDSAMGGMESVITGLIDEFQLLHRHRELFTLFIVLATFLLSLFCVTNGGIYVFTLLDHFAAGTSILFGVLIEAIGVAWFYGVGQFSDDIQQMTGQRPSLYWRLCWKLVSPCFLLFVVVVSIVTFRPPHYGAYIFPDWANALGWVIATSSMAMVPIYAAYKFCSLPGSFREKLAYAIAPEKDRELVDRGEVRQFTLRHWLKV

Row | Compound | ED50 (Rattus norvegicus [9]) [mg/kg] | Activity (Rattus norvegicus [13]) [%] | Activity (Mus musculus [14]) | Activity (Mus musculus [15]) | IC50 [17] [nM] | Ki [17] [nM] | ED50 (Mus musculus [18]) [mg/kg] | Activity (Mus musculus [19]) [%] | Activity (Mus musculus [20]) [%] | Activity (Mus musculus [21]) [%] | Activity (Mus musculus [22]) [%] | Activity (Mus musculus [23]) [%] | Activity (Mus musculus [24]) [%] | Activity (Mus musculus [25]) [%] | Activity (Mus musculus [26]) [%] | Activity (Rattus norvegicus [35]) [%] | Activity (Rattus norvegicus [36]) [%] | Activity (Rattus norvegicus [37]) [%] | Activity (Mus musculus [38]) | Activity (Mus musculus [39]) [%] | further results
1 | COC(=O)[C@@H]1C2CC[C@H](C[C@@H]1c1ccc(C)cc1)N2C | 0.31 | 86 | Active | Active | 60 | 36 | 0.6 | 533 | 460 | 157 | 30 | 283 | 476 | 343 | 273 |  |  |  |  |  | Activity (Mus musculus [1]): 19%; Activity (Mus musculus [2]): -3%; Activity (Mus musculus [3]): -61%; Activity (Mus musculus [4]): -28%; Activity (Mus musculus [5]): 305%; Activity (Mus musculus [6]): 298%; Activity (Mus musculus [7]): 41%; Activity (Mus musculus [8]): -4%; Activity (Rattus norvegicus [10]): 25%; Activity (Rattus norvegicus [11]): 57%; Activity (Rattus norvegicus [12]): 71%; IC50 [16]: 1.7 nM; Activity (Rattus norvegicus [27]): 0%
2 | COC(=O)[C@@H]1C2CC[C@H](C[C@@H]1c1ccccc1)N2C | 0.34 | 100 | Active | Active | 920 | 550 | 1.2 | 660 | 506 | 276 | 199 | 904 | 1080 | 964 | 190 |  |  |  |  |  | Activity (Mus musculus [1]): 44%; Activity (Mus musculus [2]): 56%; Activity (Mus musculus [3]): 24%; Activity (Mus musculus [4]): 62%; Activity (Mus musculus [5]): 253%; Activity (Mus musculus [6]): 192%; Activity (Mus musculus [7]): 102%; Activity (Mus musculus [8]): 151%; Activity (Rattus norvegicus [10]): 14%; Activity (Rattus norvegicus [11]): 36%; Activity (Rattus norvegicus [12]): 88%; Activity (Mus musculus [28]): Active; Activity (Mus musculus [29]): Active; Activity (Mus musculus [30]): Active; Activity (Mus musculus [31]): Active; Activity (Mus musculus [32]): Active; Activity (Mus musculus [33]): Active
3 | COC(=O)[C@H]1[C@@H](OC(=O)c2ccccc2)C[C@@H]2CC[C@H]1N2C [COCAINE] | 2.44 | 21 |  | Active |  |  | 10 | 27 | 14 | -17 | -9 | 127 | 24 | 10 | -21 | 59 | 82 | 97 | Active | 341 | Activity (Rattus norvegicus [34]): 32%; Activity (Mus musculus [30]): Active; Activity (Mus musculus [33]): Active; Activity (Mus musculus [40]): 100%; Activity (Mus musculus [41]): -10%; Activity (Mus musculus [42]): 16%; Activity (Mus musculus [43]): 269%; Activity (Mus musculus [44]): 391%; Activity (Mus musculus [45]): 255%; Activity (Mus musculus [46]): 91%
4 | COC(=O)[C@@H]1C2CCC(C[C@H]1c1ccc(F)cc1)N2C (stereo partly drawn) | 5.66 | 0 | Active | Active | 1200 | 741 | 15.6 | 26 | -23 | 16 | 41 | 137 | 105 | 146 | 58 | 29 | 38 | 86 | Active | 362 | Activity (Mus musculus [31]): Active; Activity (Mus musculus [47]): Active; Activity (Mus musculus [48]): Active; Activity (Mus musculus [40]): 187%; Activity (Mus musculus [41]): 215%; Activity (Mus musculus [42]): 66%; Activity (Mus musculus [43]): 575%; Activity (Mus musculus [44]): 340%; Activity (Mus musculus [45]): 194%; Activity (Mus musculus [46]): 73%; IC50 [49]: 5060 nM; Ki [49]: 460 nM
5 | COC(=O)[C@@H]1C2CCC(C[C@H]1c1ccccc1)N2C (stereo partly drawn) | 3.19 |  | Active | Active | 541 | 271 | 21.8 | -30 | -39 | -35 | 12 | 43 | 6 | -13 | 6 | 13 | 100 | 100 | Active | 161 | Activity (Mus musculus [47]): Active; Activity (Mus musculus [48]): Active; IC50 [16]: 101 nM; Activity (Mus musculus [40]): 17%; Activity (Mus musculus [41]): 47%; Activity (Mus musculus [42]): 97%; Activity (Mus musculus [43]): 338%; Activity (Mus musculus [44]): 191%; Activity (Mus musculus [45]): 234%; Activity (Mus musculus [46]): 390%
